Assays:
[1] = system: recombinant erythrose reductase type III; experiment: Substrate specificity of purified recombinant erythrose reductase type III, NADPH consumption at 340 nm; assay type: biochemical, Trichosporonoides megachiliensis; settings: rate with D-erythrose = 100%; 12 mM substrate, 0.2 mM NADPH, 50 mM phosphate buffer pH 6.5, 37° C., 5 minutes
Description: (§1) The substrate specificities of the purified recombinant erythrose reductases type III, type II, and type I were compared with that of the erythrose reductase heretofore reported (natural type: H. Ishizuka et al., Biosci. Biotech. Biochem., 56(6), 941-945, 1992).
(§2) In the presence of 50 mM of a phosphate buffer at pH 6.5, 12 mM of a substrate, and 0.2 mM of NADPH, 20 μL of an enzyme was acted (1 mL in total), and a change with time in optical absorbance at 340 nm was measured at 37° C. for 5 minutes.
(§3) With the reaction rate at which erythrose is reduced as a substrate as being 100%, relative values (%) of reaction rates for reducing various ketoses and aldoses are shown in Table 1.

[2] = system: recombinant erythrose reductase type II; experiment: Substrate specificity of purified recombinant erythrose reductase type II, NADPH consumption at 340 nm; assay type: biochemical, Trichosporonoides megachiliensis; settings: rate with D-erythrose = 100%; 12 mM substrate, 0.2 mM NADPH, 50 mM phosphate buffer pH 6.5, 37° C., 5 minutes
Description: as §1, §2, §3

[3] = system: recombinant erythrose reductase type I; experiment: Substrate specificity of purified recombinant erythrose reductase type I, NADPH consumption at 340 nm; assay type: biochemical, Trichosporonoides megachiliensis; settings: rate with D-erythrose = 100%; 12 mM substrate, 0.2 mM NADPH, 50 mM phosphate buffer pH 6.5, 37° C., 5 minutes
Description: as §1, §2, §3

[4] = system: natural type erythrose reductase type III; settings: rate with D-erythrose = 100%; 12 mM substrate, 0.2 mM NADPH, 50 mM phosphate buffer pH 6.5, 37° C.; reported natural type (Ishizuka et al. 1992); cited from earlier work
[5] = IEF-PAGE (isoelectric focusing) of purified recombinant erythrose reductases; assay type: physicochemical; settings: Phast Gel IEF pH 4-6.5, from mobility of band
Description: On the purified recombinant erythrose reductases, IEF-PAGE was carried out with a fully automatic electrophoresis system called Phast System (produced by Amersham Pharmacia Biotech), using a gel (trade name: Phast Gel (IEF pH 4-6.5), manufacturer: Amersham Pharmacia Biotech).
Electrophoresis was conducted using a pH gradient gel, and the separated proteins were stained.
From FIG. 9, the isoelectric point of each enzyme could be confirmed from the mobility of a band.

Row | Molecule | Relative value (%) of reaction rate, Recombinant type Type III [1] [%] | Relative value (%) of reaction rate, Recombinant type Type II [2] [%] | Relative value (%) of reaction rate, Recombinant type Type I [3] [%] | Relative value (%) of reaction rate, Normal type Type III [4] [%] | isoelectric point (pI) [5]
1 | O=Cc1ccc([N+](=O)[O-])cc1 [p-nitrobenzaldehyde] | 66.3 | 8.8 | 11.5 | 46.0 | 
2 | O=C[C@@H](O)[C@@H](O)[C@H](O)[C@H](O)CO [D-mannose] | 0.0 | 0.0 | 0.0 | 0.0 | 
3 | O=C(CO)[C@@H](O)[C@H](O)CO [D-xylulose] | 7.8 | 3.5 | 7.5 | 0.0 | 
4 | O=C[C@H](O)[C@@H](O)[C@H](O)[C@H](O)CO [D-glucose] | 0.0 | 0.0 | 0.0 | 0.0 | 
5 | O=C[C@H](O)CO [D-glyceraldehyde] | 98.2 | 107.8 | 102.0 | 66.0 | 
6 | O=C[C@H](O)[C@@H](O)[C@@H](O)[C@H](O)CO [D-galactose] | 0.0 | 0.0 | 0.0 | 0.0 | 
7 | O=C[C@H](O)[C@@H](O)[C@H](O)CO [D-xylose] | 4.5 | 2.4 | 3.2 | 1.2 | 
8 | O=C[C@@H](O)[C@H](O)[C@H](O)CO [D-arabinose] | 0.0 | 0.0 | 0.9 | 0.0 | 
9 | O=C[C@H](O)[C@H](O)CO [D-erythrose] | 100.0 | 100.0 | 100.0 | 100.0 | 
10 | O=C(CO)[C@@H](O)CO [L-erythrulose] |  |  |  | 38.0 | 
11 | O=C(CO)[C@@H](O)[C@H](O)[C@H](O)CO [D-fructose] | 0.0 | 0.0 | 0.0 | 0.0 | 
12 | O=C[C@H](O)[C@@H](O)[C@H](O)[C@H](O)C(=O)O [D-glucuronate] | 0.8 | 0.0 | 0.7 | 6.6 | 
13 | OC[C@H]1O[C@H](O[C@H]2O[C@H](CO)[C@@H](O)[C@H](O)[C@H]2O)[C@H](O)[C@@H](O)[C@@H]1O [Trehalose] | 0.0 | 0.0 | 0.0 | 0.0 | 
14 | O=C[C@H](O)[C@H](O)[C@H](O)CO [D-ribose] | 2.3 | 0.7 | 1.0 | 1.2 | 
15 | O=C(CO)[C@@H](O)[C@H](O)[C@@H](O)CO [L-sorbose] | 0.0 | 0.0 | 0.0 | 0.0 | 
16 | purified recombinant erythrose reductase type II: recombinant enzyme of SEQ. ID No. 4 expressed in E. coli, histidine Tag cleaved (protein) MSYKQYIPLNDGNKIPALGFGTWQAEPGQVGASVKNAVKAGYRHLDLAKVYQNQSEIGVALQELFDQGIVKREDLFITSKVWNNRHAPEHVEPALDETLKELGLSYLDLYLIHWPVAFKFTTPQELFPTEPDNKELAAIDDSIKLVDTWKAVVALKKTGKTKSVGVSNFTTDLVDLVEKASGERPAVNQIEAHPLLQQDELVAHHKSKNIVITAYSPLGNNVSGKPPLTQNPGIEATAKRLNHTPAAVLLAWGIQRGYSVLVKSVTPSRIESNYDQITLSPEEFQKVTDLIKEYGESRNNIPLNYKPSWPISVFGTSDEAKATHKINTNL |  |  |  |  | 5.3
17 | purified recombinant erythrose reductase type III: recombinant enzyme of SEQ. ID No. 2 expressed in E. coli, histidine Tag cleaved (protein) MSYKQYIPLNDGNKIPALGFGTWQAEPGQVGASVKNAVKAGYRHLDLAKVYQNQSEIGVALQELFDQGIVKREDLFITSKVWNNRHAPEHVEPALDETLKELGLSYLDLYLIHWPVAFKFTTPQELFPTEPDNKELAAIDDSIKLVDTWKAVVALKKTGKTKSVGVSNFTTDLVDLVEKASGERPAVNQIEAHPLLQQDELVAHHKSKNIVITAYSPLGNNVSGKPPLTQNPGIEATAKRLNHTPAAVLLAWGIQRGYSVLVKSVTPSRIESNYDQITLSPEEFQKVTDLIKEYGESRNNIPLNYKPSWPISVFGTSDEAKATHKINTNL |  |  |  |  | 5.8
18 | purified recombinant erythrose reductase type I: recombinant enzyme of SEQ. ID No. 6 expressed in E. coli, histidine Tag cleaved (protein) MSYNKNIPLNDGNSIPALGYGTWQAEPGQVGEGVKLAVKAGYRHLDLAKVYQNQTEIGQALKELFDEGVVKREDLFITSKLWNNRHAPEHVEPALDETLKELGLSYLDLYLIHWPVAFKFTTPDELLPADPTNKDLAYIDDSVKLSDTWKAVVALKKTGKTKSVGVSNFSTRLVDLVEEASGERPAVNQIEAHPLLQQDELVAHHKSKNIVITAYSPLGNNVAGKPPLTENPGIVDAAKRLNHTPAAVLIAWGIQRGYSVLVKSVTPSRIKSNFEQITLSDEEFQRVTNLIKEYGESRNNVPFNYKPSWSIDVFGTQYEAKATHKINA |  |  |  |  | 4.7

Reference: patent US6960458B2, “Erythrose reductase, its cDNA and cell which the cDNA express” (Director of National Food Research Institute, Ministry of …, priority 2001, dated 2005)
